Numbers after ± are expanded uncertainties.
Conditions: for kinematic viscosity: Liquid, Scattered Light Surfacing

CCF [fluoroethane]
Conditions | surface tension liquid-gas [mN/m]
244.13 K, Capillary rise | 16.72 ± 0.5
246.15 K, Capillary rise | 16.42 ± 0.5
248.13 K, Capillary rise | 16.18 ± 0.49
250.05 K, Capillary rise | 15.87 ± 0.48
252.1 K, Capillary rise | 15.59 ± 0.47
254.15 K, Capillary rise | 15.26 ± 0.46
256.05 K, Capillary rise | 14.97 ± 0.45
258.13 K, Capillary rise | 14.69 ± 0.44
260.05 K, Capillary rise | 14.38 ± 0.43
262.08 K, Capillary rise | 14.13 ± 0.43
264.13 K, Capillary rise | 13.85 ± 0.42
266.1 K, Capillary rise | 13.58 ± 0.41
268.08 K, Capillary rise | 13.27 ± 0.4
270.1 K, Capillary rise | 13 ± 0.39
272.04 K, Capillary rise | 12.69 ± 0.38
274.1 K, Capillary rise | 12.4 ± 0.38
276.03 K, Capillary rise | 12.08 ± 0.37
278.14 K, Capillary rise | 11.81 ± 0.36
280.14 K, Capillary rise | 11.54 ± 0.35
282.14 K, Capillary rise | 11.25 ± 0.34
284.14 K, Capillary rise | 10.95 ± 0.33
286.12 K, Capillary rise | 10.67 ± 0.32
288.13 K, Capillary rise | 10.38 ± 0.32
290.12 K, Capillary rise | 10.1 ± 0.31
292.13 K, Capillary rise | 9.82 ± 0.3
293.43 K, Surface Light Scattering | 9.46 ± 0.28
294.12 K, Capillary rise | 9.53 ± 0.29
296.12 K, Capillary rise | 9.24 ± 0.28
298.1 K, Capillary rise | 8.96 ± 0.27
300.11 K, Capillary rise | 8.66 ± 0.26
302.17 K, Capillary rise | 8.37 ± 0.26
303.14 K, Surface Light Scattering | 8.16 ± 0.25
304.11 K, Capillary rise | 8.08 ± 0.25
305.13 K, Capillary rise | 7.95 ± 0.24
306.12 K, Capillary rise | 7.83 ± 0.24
308.12 K, Capillary rise | 7.54 ± 0.23
310.18 K, Capillary rise | 7.27 ± 0.22
312.17 K, Capillary rise | 7 ± 0.21
313.11 K, Surface Light Scattering | 6.78 ± 0.2
314.18 K, Capillary rise | 6.71 ± 0.21
316.17 K, Capillary rise | 6.44 ± 0.2
318.16 K, Capillary rise | 6.17 ± 0.19
320.17 K, Capillary rise | 5.86 ± 0.18
322.18 K, Capillary rise | 5.61 ± 0.17
323.14 K, Surface Light Scattering | 5.46 ± 0.16
324.18 K, Capillary rise | 5.39 ± 0.17
326.17 K, Capillary rise | 5.08 ± 0.16
328.16 K, Capillary rise | 4.84 ± 0.15
330.17 K, Capillary rise | 4.6 ± 0.14
332.17 K, Capillary rise | 4.33 ± 0.14
333.15 K, Surface Light Scattering | 4.2 ± 0.13
334.16 K, Capillary rise | 4.1 ± 0.13
343.14 K, Surface Light Scattering | 3 ± 0.09
353.12 K, Surface Light Scattering | 1.89 ± 0.06
363.11 K, Surface Light Scattering | 0.92 ± 0.03
373.09 K, Surface Light Scattering | 0.13 ± 0.01

Conditions | kinematic viscosity [m2/s]
293.43 K | 1.81e-07 ± 2.3e-08
303.14 K | 1.66e-07 ± 2.2e-08
313.11 K | 1.52e-07 ± 2e-08
323.14 K | 1.42e-07 ± 1.9e-08
333.15 K | 1.32e-07 ± 1.8e-08
343.14 K | 1.22e-07 ± 1.7e-08
353.12 K | 1.12e-07 ± 1.5e-08
363.11 K | 1.03e-07 ± 1.5e-08
373.09 K | 8.97e-08 ± 1.3e-08

Source: the NIST ThermoML archive (doi:10.1016/j.fluid.2015.07.010)
